Measurements taken from ChEMBL document CHEMBL1201862, “PubChem BioAssay data set” (2004).
Active and inactive are the calls of the source.

Key:
[1] = Luminescence Cell-Based Dose Response HTS to Identify Inhibitors of 5'UTR Stem-Loop Driven Prion Protein mRNA Translation in H4 Neuroglioblastoma Cells. [Related pubchem assays: 1827 (Project Summary), 1813 (Primary HTS)]; type: functional
[2] = alpha-synuclein stem-loop luciferase translation blockers – H4 neuroglioma cells, luminescence, confirmation (AID 1988); type: functional, cell-based
[3] = system: BJ; assay: growth inhibition of engineered Ras-driven BJ cells – cell-based, alamar blue fluorescence, cherrypicked samples, dose response (AID 2631); type: functional; conditions: Homo sapiens;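 note: confirmatory dose-response assay in RAS-dependent BJ fibroblasts engineered with TERT, LT and ST, with cytotoxicity read by fluorescence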
[4] = Luminescence-based dose response cell-based high throughput screening assay for cytotoxic compounds using the IEC-6 intestinal epithelial cell line. [Related pubchem assays: 1858 (Summary AID.), 1825 (Counterscreen.), 1907 (Confirmation screen.)]; type: functional
[5] = general cell-killing toxicity readout – plate reader, dry powder samples, cytotoxicity control for PAX8 inhibitor project, dose response (AID 743021); type: functional, cell-based
[6] = biological target: T1, Ubiquitin-conjugating enzyme E2 N (Homo sapiens, UniProt P61088); type: functional;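 note: Dose-response confirmation in a TR-FRET assay detecting UBC13-driven polyubiquitin chain formation, inhibition measured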
T1 sequence (P61088 whole entry): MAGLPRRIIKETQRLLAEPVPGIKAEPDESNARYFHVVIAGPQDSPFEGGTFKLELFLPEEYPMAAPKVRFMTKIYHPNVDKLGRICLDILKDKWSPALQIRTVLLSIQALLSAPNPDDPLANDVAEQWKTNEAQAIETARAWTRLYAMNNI

[7] = cells; type: functional
[8] = system: HEK293; assay: optical interference in Abeta FP readout, dose response, artefact control for IDE activator project, biochemical, fluorescence polarization (AID 588442); type: functional, cell-based; conditions: Homo sapiens
[9] = HepG2 cell cytotoxicity, dose response, cytotoxicity control for non-replicating M. tuberculosis project (AID 489018); type: functional; conditions: Mycobacterium tuberculosis
[10] = biological target: Nonstructural protein 1 (Influenza A virus, UniProt Q194T2); type: functional, Influenza A virus (A/California/07/2009(H1N1))
Nonstructural protein 1, sequence (Q194T2 whole entry): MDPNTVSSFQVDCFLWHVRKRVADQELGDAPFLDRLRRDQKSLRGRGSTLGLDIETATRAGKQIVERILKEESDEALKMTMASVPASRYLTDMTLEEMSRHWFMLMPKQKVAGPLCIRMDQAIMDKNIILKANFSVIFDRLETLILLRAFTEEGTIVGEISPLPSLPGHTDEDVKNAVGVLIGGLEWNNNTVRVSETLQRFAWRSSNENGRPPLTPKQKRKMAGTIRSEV

[11] = biological target: Glucose-6-phosphate 1-dehydrogenase (Homo sapiens, UniProt P11413); assay: inhibition of Homo sapiens G6PD, dose series – biochemical, fluorescence, selectivity assay for P. falciparum G6PD inhibitor project, dose response (AID 504792); type: functional
Glucose-6-phosphate 1-dehydrogenase, sequence (P11413 whole entry): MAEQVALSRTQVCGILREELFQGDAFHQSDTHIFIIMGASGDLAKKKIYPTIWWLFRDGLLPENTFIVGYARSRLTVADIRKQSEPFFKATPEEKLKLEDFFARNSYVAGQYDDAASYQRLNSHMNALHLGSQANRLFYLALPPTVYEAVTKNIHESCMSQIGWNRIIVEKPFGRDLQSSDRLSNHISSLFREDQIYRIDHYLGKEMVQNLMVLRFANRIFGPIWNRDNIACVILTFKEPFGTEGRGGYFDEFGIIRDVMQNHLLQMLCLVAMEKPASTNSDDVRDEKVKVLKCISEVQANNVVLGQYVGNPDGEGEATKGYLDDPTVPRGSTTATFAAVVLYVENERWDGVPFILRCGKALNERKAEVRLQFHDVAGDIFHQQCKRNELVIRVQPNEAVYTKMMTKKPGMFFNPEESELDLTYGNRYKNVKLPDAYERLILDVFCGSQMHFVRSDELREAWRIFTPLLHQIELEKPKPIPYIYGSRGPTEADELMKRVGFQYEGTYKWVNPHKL

[12] = biological target: T2, Sentrin-specific protease 8 (Homo sapiens, UniProt Q96LD8); type: functional;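 note: luminescence read-out of SENP8 inhibition, dose-response confirmation following an ultra-high-throughput screen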
T2 sequence (Q96LD8 whole entry): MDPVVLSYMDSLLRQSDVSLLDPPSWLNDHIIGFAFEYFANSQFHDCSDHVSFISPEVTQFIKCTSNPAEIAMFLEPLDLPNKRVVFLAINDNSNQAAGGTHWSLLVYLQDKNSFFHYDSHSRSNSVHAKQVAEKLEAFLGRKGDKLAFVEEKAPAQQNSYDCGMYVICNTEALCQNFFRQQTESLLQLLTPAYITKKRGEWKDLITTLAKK

[13] = DRD fibroblast viability loss – cell-based, non-viral oncogenic, luminescence, dose response (AID 1934); type: functional; conditions: Homo sapiens
[14] = biological target: Heat shock protein HSP 90-alpha (Homo sapiens, UniProt P07900); type: functional, organism-based
[15] = system: BJ; assay: BJ-TERT fibroblast viability loss – cell-based, RAS-independent, luminescence, dose response (AID 1933); type: functional; conditions: Homo sapiens
[16] = Trypanosoma cruzi growth suppression in host cells – NIH3T3 host cells, beta-gal luminescence, confirmation (AID 2044); type: functional, cell-based;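 note: intracellular parasites grown in NIH/3T3 mouse fibroblasts as host cells; luminescent beta-galactosidase reporter signal from transgenic T. cruzi replicating inside host cells; inhibitors lower the luminescence signal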
[17] = biological target: T3, SUMO-activating enzyme (Homo sapiens, UniProt Q9UBT2); assay: blockers of UBC9-mediated SUMO conjugation – biochemical, AlphaScreen, SUMOylation inhibitor project, confirmation (AID 2018); type: functional
T3 sequence (Q9UBE0 whole entry): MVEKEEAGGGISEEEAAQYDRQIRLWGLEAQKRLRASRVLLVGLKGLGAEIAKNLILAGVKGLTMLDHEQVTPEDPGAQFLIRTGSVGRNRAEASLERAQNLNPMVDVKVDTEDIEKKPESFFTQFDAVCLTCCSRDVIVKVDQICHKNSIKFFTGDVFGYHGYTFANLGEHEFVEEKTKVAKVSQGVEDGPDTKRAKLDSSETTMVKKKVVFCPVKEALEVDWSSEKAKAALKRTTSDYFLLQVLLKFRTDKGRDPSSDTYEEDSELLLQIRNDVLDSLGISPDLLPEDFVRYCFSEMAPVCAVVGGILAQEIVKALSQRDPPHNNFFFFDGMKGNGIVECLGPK
T3 sequence (Q9UBT2 whole entry): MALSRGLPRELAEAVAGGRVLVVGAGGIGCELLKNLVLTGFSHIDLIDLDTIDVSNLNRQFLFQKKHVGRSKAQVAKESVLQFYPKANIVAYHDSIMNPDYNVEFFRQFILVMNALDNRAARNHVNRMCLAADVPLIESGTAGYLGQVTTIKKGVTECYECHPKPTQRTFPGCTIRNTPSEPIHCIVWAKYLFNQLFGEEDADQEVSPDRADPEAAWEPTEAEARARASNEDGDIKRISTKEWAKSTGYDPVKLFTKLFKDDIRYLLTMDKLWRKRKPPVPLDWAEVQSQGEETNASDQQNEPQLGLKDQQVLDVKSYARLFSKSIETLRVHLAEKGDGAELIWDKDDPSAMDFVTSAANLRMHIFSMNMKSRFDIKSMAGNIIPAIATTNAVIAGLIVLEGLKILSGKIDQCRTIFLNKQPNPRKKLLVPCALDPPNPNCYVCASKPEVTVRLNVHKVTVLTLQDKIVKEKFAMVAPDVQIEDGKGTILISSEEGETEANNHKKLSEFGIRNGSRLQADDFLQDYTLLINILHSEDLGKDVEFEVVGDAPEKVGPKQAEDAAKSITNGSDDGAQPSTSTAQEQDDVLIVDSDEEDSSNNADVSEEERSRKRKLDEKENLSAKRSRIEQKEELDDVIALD

[18] = biological target: T4, Protein skinhead-1 (Caenorhabditis elegans, UniProt P34707); type: functional
T4 sequence (P34707 whole entry): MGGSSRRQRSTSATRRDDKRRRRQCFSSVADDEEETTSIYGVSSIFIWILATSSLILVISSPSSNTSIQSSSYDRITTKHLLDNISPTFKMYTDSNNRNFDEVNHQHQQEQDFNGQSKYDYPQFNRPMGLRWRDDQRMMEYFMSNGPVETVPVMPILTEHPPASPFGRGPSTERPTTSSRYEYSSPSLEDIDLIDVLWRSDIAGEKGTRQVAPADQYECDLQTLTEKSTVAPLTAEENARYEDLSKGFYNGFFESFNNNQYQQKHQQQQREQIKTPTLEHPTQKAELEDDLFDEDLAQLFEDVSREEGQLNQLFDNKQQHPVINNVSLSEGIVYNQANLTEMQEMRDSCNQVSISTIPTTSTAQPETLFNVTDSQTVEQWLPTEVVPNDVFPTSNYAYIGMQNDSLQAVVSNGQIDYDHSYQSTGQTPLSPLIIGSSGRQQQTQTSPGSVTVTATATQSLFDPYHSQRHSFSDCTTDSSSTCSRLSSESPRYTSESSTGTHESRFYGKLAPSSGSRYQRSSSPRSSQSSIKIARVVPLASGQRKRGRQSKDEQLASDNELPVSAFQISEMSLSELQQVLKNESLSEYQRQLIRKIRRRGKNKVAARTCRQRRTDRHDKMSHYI

[19] = biological target: T3, SUMO-activating enzyme; assay: blockers of SAE1/SAE2–UBC9 SUMO transfer – biochemical, HTRF, uHTS, primary screen (AID 2006); type: protein-complex assay
[20] = viability loss in THP-1 monocytes – THP-1 cells, cytotoxicity control for Vif-APOBEC3G degradation inhibitor project, dose response (AID 1117359); type: functional; conditions: THP-1
[21] = viability loss in Vero cells – cytotoxicity control for Vif-APOBEC3G degradation inhibitor project, dose response (AID 1117358); type: functional; conditions: Vero

In the case of `CCOC(=O)c1c(C)[nH]c2c1-c1ccccc1C(=O)C2=O`, the EC50 [1] was 1.35 µM (active), the EC50 [2] was 254 nM (active) and the EC50 [3] was 554 nM (inconclusive). The IC50 [4] was 421 nM (active) and the AC50 [5] was 4.93 µM (active).

For `CCOC(=O)C1=C(c2ccccc2)N=C(N)NC1c1ccc(OCc2ccc(Cl)cc2)c(OC)c1` (centres undefined), the IC50 [6] was > 20 µM (inactive), the IC50 [7] was 9.22 µM (active) and the EC50 [8] was > 55.9 µM (inactive). The CC50 [9] was 13.1 µM (active) and the IC50 [10] was 79.2 µM (active).

For `COc1ccc2c(c1)CCC(/C=N/c1ccc3c(c1)OCO3)=C2O`, the IC50 [11] was > 80 µM (inactive) and the IC50 [12] was 15.1 µM (active).

In the case of `O=C(c1ccccc1)c1coc2c1C(=O)c1ccccc1C2=O`, the IC50 [12] was 17.4 µM (active).

In the case of `CC(=O)NC(c1ccc2ccccc2c1)c1ccc2cccnc2c1O` (centres undefined), the EC50 [13] was 6.52 µM (active), the AC50 [14] was 1.98 µM (active) and the EC50 [15] was 687 nM (active). The EC50 [16] was 306 nM (active) and the IC50 [4] was 1050 nM (active).

In the case of `CCOC(=O)c1c(C)oc2c1c(/C=N/CCC(=O)O)c(O)c1ccccc12`, the IC50 [17] was 3.71 µM (active), the IC50 [18] was > 100 µM (inactive) and the IC50 [19] was 28.8 µM (active).

In the case of `O=[N+]([O-])c1c(NCCO)cc(Sc2nc3ccccc3s2)c2nonc12`, the IC50 [11] was > 80 µM (inactive), the CC50 [20] was 22.9 µM (active) and the CC50 [21] was > 40 µM (active).
